We go through 21 compounds from patent US3954778A, “Aminoacetyl derivatives of 2,3-diphenyl cyclopropyl amine” (priority 1970, dated 1976).

For series [1], the system named is male albine Swiss mice. Kind of series: Shock by cardiazol (M.M.S.). The settings on record: for ED50: Mus musculus. The series is classed as in vivo. On the procedure:
(§1) Materials and methods. The animals used to perform the pharmacological tests with the compounds of the invention have been, unless the contrary is explicitly indicated, male albine Swiss mice weighing 19-23 g; each animal has been used only once.
(§2) The compounds have been administered as hydrochlorides, under skin (0.1 ml/10 g) 30 minutes ante; for determining the LD50, the compounds have been administered by intraperitoneal route and were considered deaths occured in the 72 hours following the treatment.
(§3) As reference compounds there was used: ethosuximide injected under skin 30 minutes ante (before); Phenurone per os 60 minutes ante; phenobarbital sodium salt under skin 30 minutes ante, trimethadione under skin 30 minutes ante; primidone per os 6 hours ante and Mephenesin under skin 30 minutes ante.
Under such conditions the results obtained with the reference compounds are in good agreement with those reported in the art for the same compounds (E. A. Swinyard, W. C. Brown, L. S. Goodman --J. Pharmacol., 1952, 106, 3 19). Shock by cardiazol (M.M.S.) -- 38 mg/kg of cardiazol, in the form of a 0.38% aqueous solution, is quickly injected in the dorsal vein of the mouse's tail (L. S. Goodman, M. Singh Grewal, W. C. Brown, E. A. Swinyard -- J. Pharmacol. 1953, 108, 168). The animals are considered as protected when the extensor phase of the hind paws is eliminated during the tonic crisis.
(§4) The so-obtained data have been elaborated by calculating the ED50 and the LD50 according to Lichtfield-Wilcoxon's method (J. Pharmacol. 1949, 96, 99).

Series [2] deals with male albine Swiss mice. Kind of series: Electroshock (M.E.S.). The settings on record: for ED50: Mus musculus. The series is classed as in vivo. On the procedure: as §1, §2, §3
Electroshock (M.E.S.) -- The method adopted in making the electroshock is Cashin C.
as §4

In the next series the test system is dog. Kind of series: Protection from adrenaline induced cardiac arrhythmias in dogs. The series is classed as in vivo. The settings on record: 1 mg/kg intravenous. On the procedure: The new compounds of the invention are deprived of MAO-inhibiting activity in live rats, both on the mithocondres of hepatic tissue and on the mithocondres of homogenatous of cerebral tissue, even if administered in doses of 100-200 mg/kg per os. As found also with other anticonvulsive drugs, the new compounds of the present invention are endowed with a good antiarrhythmic activity. In particular the activity in cardiac arrhythmias of N-pyrrolidinoacetyl-2,3-cis, trans-diphenylcyclopropylamine has been studied by experimentally inducing arrhythmias in rats by means of calcium chloride, and in dogs by means of adrenaline.
The experiments with dogs have been performed as follows:
The dog has been anesthetized with chloralose and then administered by intravenous injection with 30 γ/kg of adrenaline. The results were evaluated according to Somani and Lum B. K. B. (J. Pharmacol. Expt. Therap. 1965, 147, 194-202).

In another series the test system is rat. Briefly: Inhibition of calcium chloride induced cardiac arrhythmias in rats. The format is in vivo. The settings on record: for minimal effective dose: read-out: active dose (complete inhibition of cardiac arrhythmias). The procedure: The new compounds of the invention are deprived of MAO-inhibiting activity in live rats, both on the mithocondres of hepatic tissue and on the mithocondres of homogenatous of cerebral tissue, even if administered in doses of 100-200 mg/kg per os. […] In particular the activity in cardiac arrhythmias of N-pyrrolidinoacetyl-2,3-cis, trans-diphenylcyclopropylamine has been studied by experimentally inducing arrhythmias in rats by means of calcium chloride, and in dogs by means of adrenaline.
The experiments in rats have been performed as follows:
There was determined the inhibiting effect of N-pyrrolidine acetyl-2,3-cis,trans-diphenylcyclopropylamine hydrochloride on the cardiac arrhythmias arising within the 5 minutes following the calcium chloride administration in comparison with quinidine, procaine and propranolol.

The next series can be described thus: Acute toxicity LD50. The settings on record: mouse, in vivo, ip. On the procedure:
as §1, §2, §4

Setting [3] is: sc, 0.5 h, new compounds (Table 2), as hydrochlorides, under skin 30 minutes ante, cardiazol 38 mg/kg i.v., read-out: ED50 M.M.S.
[4] abbreviates: sc, 0.5 h, new compounds (Table 2), as hydrochlorides, under skin 30 minutes ante, read-out: ED50 M.E.S.
The mark [5] stands for this setting: sc, 0.5 h, reference compounds (Table 1), under skin 30 minutes ante, cardiazol 38 mg/kg i.v., read-out: M.M.S. ED50.
Where [6] appears, read: sc, 0.5 h, read-out: M.M.S. ED50.

Counter-ions that a name gives are not always drawn. Like-named read-outs stand apart in the source and are kept apart here.

For the compound “1.1-dimethyl-3-phenyl-urea [Phenurone, reference compound]”, the “M.M.S. ED50” value in the series with male albine Swiss mice [1] (Phenurone (Table 1), per os 60 minutes ante, cardiazol 38 mg/kg i.v.) worked out at 50 mg/kg. Besides, the “M.E.S. ED50” value in the series on male albine Swiss mice [2] (Phenurone (Table 1), per os 60 minutes ante) is reported as 115 mg/kg.

A word on the ED50: it is the dose at which the effect has come halfway, by size or by number of responders. Turning to `CC(C)N(CC(=O)NC1[C@H](c2ccccc2)[C@H]1c1ccccc1)C(C)C` (relative stereo) [N-diisopropylaminoacetyl-2,3-cis,trans-diphenylcyclopropylamine], the ED50 stood at 87 mg/kg in the series on male albine Swiss mice [1] (setting [3]) and 135 mg/kg in the series on male albine Swiss mice [2] (setting [4]).

As to `O=C(CN1CCCC1)NC1[C@H](c2ccccc2)[C@H]1c1ccccc1` (relative stereo) [N-pyrrolidinoacetyl-2,3-cis,trans-diphenylcyclopropylamine hydrochloride], in the series with dog (2 minutes ante adrenaline (30 γ/kg i.v.)), the “protection from adrenaline arrhythmia” value was “completely protected”. The compound also registered a duration of effect in the series with dog (adrenaline arrhythmia) of 60 min. Also, in the series on rat (calcium chloride 80 mg/kg i.v., anesthetized rat, drug 90 seconds before calcium chloride), the minimal effective dose stood at 2 mg/kg. The duration of activity result with rat (rat, calcium chloride arrhythmia, dose 2 mg/kg) was “about 20 minutes”.

One may read the LD50 as the dose expected to kill half of the subjects tested. A higher LD50 goes with lower toxicity. As to `O=C(CN1CCCCC1)NC1[C@H](c2ccccc2)[C@H]1c1ccccc1` (relative stereo) [cis-trans, N-piperidinoacetyl-2,3-cis,trans-diphenylcyclopropylamine hydrochloride], the ED50 came out at 6 mg/kg with male albine Swiss mice [1] (setting [3]) and 14.5 mg/kg in the series on male albine Swiss mice [2] (setting [4]). Moreover, in the series “Acute toxicity LD50”, the LD50 at 72 h is 88 mg/kg.

On to `O=C(CN1CCCC1)NC1[C@H](c2ccccc2)[C@H]1c1ccccc1` (relative stereo) [cis-trans, N-pyrrolidinoacetyl-2,3-cis,trans-diphenylcyclopropylamine], for which the results for the 50% effective dose (ED50) in the series with male albine Swiss mice [1] (setting [3]) and with male albine Swiss mice [2] (setting [4]) were 5.6 mg/kg and 9 mg/kg, respectively. Further, the LD50 at 72 h in “Acute toxicity LD50” was 67.5 mg/kg.

`CCN(CC)CC(=O)NC1[C@H](c2ccccc2)[C@H]1c1ccccc1` (relative stereo) [cis-trans, R1 = C2 H5, R2 = C2 H5, N-dietylaminoacetyl-2,3-cis-trans-diphenylcyclopropylamine]: the ED50 came to 12.5 mg/kg in the series with male albine Swiss mice [1] (setting [3]) and 14.2 mg/kg in the series on male albine Swiss mice [2] (setting [4]). The LD50 at 72 h in the series “Acute toxicity LD50” is 92.5 mg/kg.

For `CN(C)CC(=O)NC1[C@H](c2ccccc2)[C@H]1c1ccccc1` (relative stereo) [cis-trans, R1 = CH3, R2 = CH3, N-dimethylaminoacetyl-2,3-cis,trans-diphenylcyclopropylamine], the figures for the ED50 with male albine Swiss mice [1] (setting [3]) and in the series with male albine Swiss mice [2] (setting [4]) were 16 mg/kg and 16.5 mg/kg, respectively.

Take `CCNCC(=O)NC1[C@H](c2ccccc2)[C@H]1c1ccccc1` (relative stereo) [cis-trans, R1 = H, R2 = C2 H5, N-ethylaminoacetyl-2,3-cis,trans-diphenylcyclopropylamine hydrochloride]: the 50% effective dose (ED50) worked out at 13 mg/kg in the series with male albine Swiss mice [1] (setting [3]) and 16.5 mg/kg in the series with male albine Swiss mice [2] (setting [4]). Also, the LD50 at 72 h in the series “Acute toxicity LD50” is 85 mg/kg.

As to `CNCC(=O)NC1[C@H](c2ccccc2)[C@H]1c1ccccc1` (relative stereo) [cis-trans, R1 = H, R2 = CH3, N-methylaminoacetyl-2,3-cis,trans-diphenyl-cylcopropylamine hydrochloride], the 50% effective dose (ED50) in the series on male albine Swiss mice [1] (setting [3]) was found to be 30 mg/kg; in the series on male albine Swiss mice [2] (setting [4]), 25.5 mg/kg. The 50% lethal dose (LD50) at 72 h in the series “Acute toxicity LD50” amounted to 112 mg/kg.

Consider `CCCN(CCC)CC(=O)NC1[C@H](c2ccccc2)[C@H]1c1ccccc1` (relative stereo) [cis-trans, R1 = n-C3 H7, R2 = n-C3 H7, di-n-propylaminoacetyl-2,3-cis, trans-diphenylcyclopropylamine hydrochloride], for which the ED50 is 175 mg/kg in the series on male albine Swiss mice [1] (setting [3]) and > 100 mg/kg with male albine Swiss mice [2] (setting [4]).

Take `CCCCN(CCCC)CC(=O)NC1[C@H](c2ccccc2)[C@H]1c1ccccc1` (relative stereo) [cis-trans, R1 = n-C4 H9, R2 = n-C4 H9, N-di-n-butylaminoacetyl-2,3-cis,trans-diphenylcyclopropylamine]: the ED50 in the series with male albine Swiss mice [1] (setting [3]) and in the series with male albine Swiss mice [2] (setting [4]) was > 250 mg/kg throughout.

As to `CCC1(C)CC(=O)NC1=O` (stereo not drawn) [Ethosuximide, reference compound], the ED50 in the series with male albine Swiss mice [1] (setting [5]) turned out to be 50 mg/kg.

For `Cc1ccccc1OCC(O)CO` (stereo not drawn) [Mephenesin, reference compound], the ED50 in the series with male albine Swiss mice [1] (setting [5]) worked out at 180 mg/kg.

As for `O=C1NC(=O)C(c2ccccc2)(c2ccccc2)N1` [Phenitoine Sodium salt, reference compound], the ED50 in the series on male albine Swiss mice [1] (iv, Phenitoine sodium salt (Table 1), route and time not stated, cardiazol 38 mg/kg i.v., read-out: M.M.S. ED50) was 7.1 mg/kg; in the series on male albine Swiss mice [2] (Phenitoine sodium salt (Table 1), route and time not stated, read-out: M.E.S. ED50) it was 15 mg/kg.

On to `CCC1(c2ccccc2)C(=O)NC(=O)NC1=O` [Phenobarbital sodium salt, reference compound], for which the ED50 in the series on male albine Swiss mice [1] (setting [6]) came out at 4.5 mg/kg; with male albine Swiss mice [2] (sc, 0.5 h, read-out: M.E.S. ED50), 35 mg/kg.

Regarding `CCC1(c2ccccc2)C(=O)NCNC1=O` [Primidone, reference compound], in the series with male albine Swiss mice [1] (po, Primidone (Table 1), per os 6 hours ante, cardiazol 38 mg/kg i.v., read-out: M.M.S. ED50), the ED50 is 5.2 mg/kg.

For `CN1C(=O)OC(C)(C)C1=O` [Trimethadione, reference compound], the ED50 in the series with male albine Swiss mice [1] (setting [6]) was 175 mg/kg.

On to `CCN(CC)CCOC(=O)c1ccc(N)cc1` [procaine], for which, in the series with rat (Rattus norvegicus), the minimal effective dose was determined as 5 mg/kg.

Take `CC(C)NCC(O)COc1cccc2ccccc12` (stereo not drawn) [propranolol]: the minimal effective dose with rat (Rattus norvegicus) amounted to 1 mg/kg.

On to `C=C[C@H]1C[N@@]2CC[C@H]1C[C@@H]2[C@@H](O)c1ccnc2ccc(OC)cc12` [quinidine], for which, in the series with rat (Rattus norvegicus), the minimal effective dose was 2.5 mg/kg.

Take `O=C(CN1CCCC1)N[C@@H]1[C@@H](c2ccccc2)[C@H]1c1ccccc1` [trans-trans, N-pyrrolidinoacetyl-2,3-trans,trans-diphenylcyclopropylamine hydrochloride]: the ED50 in the series on male albine Swiss mice [2] (setting [4]) turned out to be 87 mg/kg. In “Acute toxicity LD50”, this compound had an LD50 at 72 h of 266 mg/kg.
